Data on 39 compounds can be found in patent publication US8143419B2, “Trisubstituted 1,2,4-triazoles” (Janssen Pharmaceutica N. V., priority 2006, dated 2012).

pEC50: −log10 of the molar value.

In data set [1] the target is T1, hα7-wt nAChR (Homo sapiens, UniProt P36544).
T1 construct: expressed in transfected cells
As to the kind of experiment: Ca2+ flux imaging (FDSS) (Protocol B), PAM activity with choline as agonist. The format is cell-based. Particulars: for pEC50: "<5" = no top plateau at maximal concentration; for Emax: read-out: % efficacy. As for the experimental part:
• Hanks buffered saline solution (HBSS, Invitrogen, Belgium), supplemented with 10 mM HEPES (Invitrogen, Belgium), CaCl2 to a final concentration of 5 mM, 0.1% Bovine serum albumin (Sigma-Aldrich NV, Belgium). b) Calcium-Sensitive Dye—Fluo-4AM • Fluo-4AM (Molecular Probes, USA) was dissolved in DMSO containing 10% Pluronic acid (Molecular Probes, USA) to give a stock solution which was diluted in assay buffer supplemented with 5 mM probenicid (Sigma, Aldrich NV, Belgium) to give a final concentration of 2 μM. c) 384-Well Plates • Black 384 well plate black/clear plates, PDL pre-coated (Corning, Incorporated, USA) d) Calcium Flux Measurement
A Functional drug screening system (FDSS, Hamamatsu) was used to measure intracellular free-calcium flux signals.
Monolayers of hα7-wt nAChR-expressing cells were grown in multi-well plates, in particular black-sided, transparent bottomed 384 well plates coated with poly-D-lysine for 24 hours prior to loading with a fluorescent calcium indicator, in a particular embodiment loading with fluo-4AM for up to 120 minutes.
PAM activity was detected in real time by applying the compounds to be tested to the loaded cells along with a α7 nicotinic receptor agonist during constant monitoring of cellular fluorescence in a FDSS. Compounds giving peak fluorescent responses greater than the response due to agonist alone, were considered to be α7 nAChR PAM's. In a particular embodiment, the α7 nicotinic receptor agonist was choline, a more particular embodiment choline applied at a sub-maximal concentration of 100 μM. In a further setting of the present invention the compounds to be tested were applied prior to the α7 nicotinic receptor agonist, in a particular embodiment up to 10 minutes prior to the agonist.
A control response to choline was calculated on each plate from the difference in peak in fluorescence in wells receiving either choline or assay buffer alone. Compounds of the present invention were tested at a concentration range from 0.01 μM to 30 μM. Compounds were considered to have an interesting activity when they potentiated the choline signal at least with 500% when tested at a concentration of 30 μM (the efficacy of 100 μM choline was defined as 100% in the absence of a PAM). The compounds also have a potentiating effect on the response to choline when measured by whole-cell patch clamp electrophysiology in GH4C1 cells stably over-expressing the human wild-type α7 receptor.

T1 sequence (P36544 23-502): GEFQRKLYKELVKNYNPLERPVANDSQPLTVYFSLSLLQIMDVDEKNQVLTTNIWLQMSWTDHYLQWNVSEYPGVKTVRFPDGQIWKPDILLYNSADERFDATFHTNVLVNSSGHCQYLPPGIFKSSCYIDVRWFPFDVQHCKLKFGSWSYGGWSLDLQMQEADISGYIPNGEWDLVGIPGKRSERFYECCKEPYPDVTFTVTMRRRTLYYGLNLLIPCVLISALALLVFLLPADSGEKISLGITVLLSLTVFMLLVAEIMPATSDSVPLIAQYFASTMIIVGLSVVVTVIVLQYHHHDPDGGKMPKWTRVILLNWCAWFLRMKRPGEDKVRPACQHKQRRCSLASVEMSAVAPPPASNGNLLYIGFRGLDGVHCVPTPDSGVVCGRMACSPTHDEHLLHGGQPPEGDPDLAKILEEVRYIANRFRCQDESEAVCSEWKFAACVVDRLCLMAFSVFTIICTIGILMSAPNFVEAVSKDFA

On to `Cc1cc(-c2nc(Nc3ccc(F)c(C(F)(F)F)c3)nn2CCCC(=O)N(C)C)ccn1` [Compound 42], for which the melting point was determined as 146.9 °C. Besides, the pEC50 in data set [1] is 6.00.

The compound `CC(=O)CCCn1nc(Nc2ccc(F)c(C(F)(F)F)c2)nc1-c1ccnc(C)c1` [Compound 43] registered a melting point of 124.1 °C. Further, the negative-log EC50 (pEC50) in data set [1] was 6.10.

`COc1ccc(Nc2nc(-c3ccnc(C4CC4)c3)n(CCF)n2)cc1C(F)(F)F` [Compound 44] returned a melting point of 165.8 °C. Further, in data set [1], the pEC50 is 5.90 and the Emax is 818%.

For `Cc1cc(-c2nc(Nc3ccc4c(c3)OC(F)(F)O4)nn2CCC(=O)N(C)C)ccn1` [Compound 45], the melting point stood at 219.3 °C. In addition, in data set [1], the negative logarithm of the EC50 (pEC50) is 6.20.

`CCNC(=O)Cn1nc(Nc2ccc3c(c2)OC(F)(F)O3)nc1-c1ccnc(C)c1` [Compound 46] gave a melting point of 244.9 °C. Besides, the pEC50 in data set [1] was 5.70.

In turn, `CC(=O)CCn1nc(Nc2cccc(C(F)(F)F)c2)nc1-c1ccnc(C)c1` [Compound 47] had a melting point of 138.1 °C. For the same compound, the pEC50 in data set [1] was less than 5.00.

Turning to `Cc1cc(-c2nc(Nc3cccc(C(F)(F)F)c3)nn2CCC(=O)N(C)C)ccn1` [Compound 48], the melting point was found to be 169.1 °C. Further, in data set [1], the pEC50 was 6.20.

As to `CC(=O)c1ccc(-c2nc(Nc3ccc(F)c(F)c3)nn2C[C@H](C)O)cn1` [Compound 50], the melting point came to 147.8 °C. In data set [1], the negative-log EC50 (pEC50) was 5.20 and the Emax amounted to 650%.

`C/C(N)=N/OC(=O)CCn1nc(Nc2ccc(F)c(C(F)(F)F)c2)nc1-c1ccncc1` [Compound 53] had a melting point of 190.2 °C. The pEC50 in data set [1] was 5.30.

The compound `Cc1nc(CCn2nc(Nc3ccc(F)c(C(F)(F)F)c3)nc2-c2ccnc(Cl)c2)no1` [Compound 56] displayed a melting point of 117.4 °C. Also, in data set [1], the pEC50 was 5.90 and the Emax is 717%.

Take `CN(C)C(=O)CCn1nc(Nc2ccc(F)c(C(F)(F)F)c2)nc1-c1ccnc(CNC(=O)C(F)(F)F)c1` [Compound 59]: the melting point came to 182.4 °C. Besides, in data set [1], the pEC50 is 6.80 and the Emax is 669%.

`O=C(Cn1nc(Nc2ccc(F)c(C(F)(F)F)c2)nc1-c1ccnc(CO)c1)NC1CC1` [Compound 61] registered a melting point of 242.2 °C. In addition, the pEC50 in data set [1] was 5.30.

The compound `COCc1cc(-c2nc(Nc3ccc(F)c(C(F)(F)F)c3)nn2CC(=O)NC2CC2)ccn1` [Compound 62] yielded a melting point of 204.6 °C. The pEC50 in data set [1] was 6.50.

`CN(C)C(=O)CCCn1nc(Nc2ccc(F)c(C(F)(F)F)c2)nc1-c1ccnc(Cl)c1` [Compound 68]: the melting point worked out at 168.8 °C. Also, the pEC50 in data set [1] is 6.10.

On to `CCc1cc(-c2nc(Nc3cccc(C(F)(F)F)c3)nn2CCO)ccn1` [Compound 70], for which the melting point is 167.9 °C. The negative-log EC50 (pEC50) in data set [1] was 5.70.

`CC(C)c1ccc(-c2nc(Nc3cccc(C(F)(F)F)c3)nn2CCO)cn1` [Compound 71]: the melting point is 177.1 °C. Further, in data set [1], the pEC50 is 6.10 and the Emax is 601%.

As to `COc1ccc(-c2nc(Nc3cccc(C(F)(F)F)c3)nn2CCO)cn1` [Compound 72], the melting point was 160 °C. The negative-log EC50 (pEC50) in data set [1] was 5.90.

The compound `COc1cc(-c2nc(Nc3cccc(C(F)(F)F)c3)nn2CCO)ccn1` [Compound 73] gave a melting point of 165.4 °C. Further, the pEC50 in data set [1] was 5.50.

Compound `CC(C)Oc1cc(-c2nc(Nc3cccc(C(F)(F)F)c3)nn2CCO)ccn1` [Compound 74] registered a melting point of 159 °C. In data set [1], the pEC50 was 5.90.

In the case of `CN(C)c1cc(-c2nc(Nc3cccc(C(F)(F)F)c3)nn2CCO)ccn1` [Compound 75], the melting point came out at 164.2 °C. Also, in data set [1], the pEC50 was 5.60.

The compound `OCCn1nc(Nc2cccc(C(F)(F)F)c2)nc1-c1ccc(C2CC2)nc1` [Compound 76] returned a melting point of 152.9 °C. Moreover, the negative-log EC50 (pEC50) in data set [1] is 6.30.

`OCCn1nc(Nc2cccc(C(F)(F)F)c2)nc1-c1ccc(N2CCOCC2)nc1` [Compound 77] returned a melting point of 145.6 °C. Further, the negative logarithm of the EC50 (pEC50) in data set [1] is 5.60.

Consider `COCCNC(=O)Cn1nc(Nc2cccc(C(F)(F)F)c2)nc1-c1ccc2c(c1)OCCO2` [Compound 82], for which the melting point is 166.3 to 168.3 °C. In data set [1], the pEC50 was 6.70.

Compound `COc1cc(-c2nc(Nc3cccc(C(F)(F)F)c3)nn2CCC(=O)N(C)C)cc(C)n1` [Compound 83] registered a melting point of 187.2 °C. Besides, the pEC50 in data set [1] is 6.70.

`COc1cc(-c2nc(Nc3cccc(C(F)(F)F)c3)nn2CCC(=O)N(C)C)cc(Cl)n1` [Compound 84]: the melting point was found to be 177.7 °C. In addition, the pEC50 in data set [1] is 6.50.

For `O=C(CCn1nc(Nc2cccc(C(F)(F)F)c2)nc1-c1ccncc1)N1CCCC1` [Compound 85], the melting point worked out at 182.2 °C. Besides, the pEC50 in data set [1] is 6.50.

In the case of `OCCn1nc(Nc2ccc(F)c(C(F)(F)F)c2)nc1-c1ccncc1` [Compound 87], the melting point amounted to 171.1 °C. In data set [1], the negative-log EC50 (pEC50) is 5.60.

`CCc1cc(-c2nc(Nc3ccc(F)c(C(F)(F)F)c3)nn2CCO)ccn1` [Compound 88] returned a melting point of 183 °C. Moreover, the pEC50 in data set [1] is 6.20.

In turn, `OCCn1nc(Nc2ccc(F)c(C(F)(F)F)c2)nc1-c1ccncc1F` [Compound 89] gave a melting point of 149.4 °C. Moreover, in data set [1], the negative logarithm of the EC50 (pEC50) was 5.30.

As to `COc1cc(-c2nc(Nc3ccc(F)c(C(F)(F)F)c3)nn2CCO)ccn1` [Compound 90], the melting point was 177.1 °C. In data set [1], the negative-log EC50 (pEC50) is 5.70.

`CCOc1ccc(-c2nc(Nc3ccc(F)c(C(F)(F)F)c3)nn2CCO)cn1` [Compound 91]: the melting point is 157.9 °C. The pEC50 in data set [1] is 6.30.

`CNc1ccc(-c2nc(Nc3ccc(F)c(C(F)(F)F)c3)nn2CCO)cn1` [Compound 92] showed a melting point of 179 °C. In addition, the pEC50 in data set [1] was 5.50.

With `OCCn1nc(Nc2ccc(F)c(C(F)(F)F)c2)nc1-c1ccc(C2CC2)nc1` [Compound 94], the melting point turned out to be 168 °C. For the same compound, in data set [1], the pEC50 is 6.60.

`FCCn1nc(Nc2ccc(F)c(C(F)(F)F)c2)nc1-c1ccc(C2CC2)nc1` [Compound 96] yielded a melting point of 126.5 °C. The pEC50 in data set [1] is 5.60.

In turn, `Cc1cc(-c2nc(Nc3ccc(F)c(C(F)(F)F)c3)nn2C[C@H](C)O)ccn1` [Compound 97] registered a melting point of 145.2 °C. Further, in data set [1], the pEC50 was 5.50.

`CNc1cc(-c2nc(Nc3ccc(F)c(C(F)(F)F)c3)nn2C[C@H](C)O)ccn1` [Compound 98]: the melting point was found to be 164.5 °C. Also, in data set [1], the pEC50 was less than 5.00.

With `C[C@H](O)Cn1nc(Nc2ccc(F)c(C(F)(F)F)c2)nc1-c1ccnc(NC2CC2)c1` [Compound 103], the melting point is 176.5 °C. Further, the pEC50 in data set [1] was 6.10.

`C[C@H](O)Cn1nc(Nc2ccc(F)c(C(F)(F)F)c2)nc1-c1ccnc(NCC2CC2)c1` [Compound 104] registered a melting point of 145.8 °C. Besides, the pEC50 in data set [1] is 5.50.

As for `C[C@H](O)Cn1nc(Nc2ccc(F)c(C(F)(F)F)c2)nc1-c1cnc2c(c1)OCC2` [Compound 105], the melting point turned out to be 174.4 °C. Moreover, the pEC50 in data set [1] is 5.40.

Broadly, the pEC50 is the negative decadic logarithm of the EC50, by convention in mol/L. The term melting point denotes the temperature, or range, at which the solid turns liquid.
